According to paper PMC8653674, “Design, Synthesis, Docking Study and Biological Evaluation of 4-Hydroxy-2H-benzo[e][1,2]thiazine-3-carboxamide 1,1-dioxide Derivatives as Anti-HIV Agents” (Iranian Journal of Pharmaceutical Research : IJPR, 2021):
Like-named read-outs stand apart in the source and are kept apart here.

Legend:
Hela cells = assay: XTT proliferation assay for cellular toxicity; assay type: cell-based
Description: (§1) The anti-HIV-1 activity of target compounds was evaluated in a single cycle replication assay evaluated in our laboratory and reported previously. In this assay, the single-cycle replicable HIV NL4-3 virions (200 ng p24) were inoculated concurrently with compounds in different concentrations to the Hela cells. The inhibition rate (%) of p24 expression was measured by capture ELISA (Biomerieux, France) 72 hours after inoculation. Percentage inhibition of p24 expression in treated culture was calculated as inhibition rate of p24 (%). The XTT (sodium3-[1(phenylaminocarbonyl)-3,4-tetrazolium]-bis(4-methoxy-6-nitro)benzene sulfonic acid) proliferation assay was conducted to evaluate the cellular toxicity according to the kit instructions. The cytotoxic concentration that reduced the number of viable cells by 50% (CC50) was calculated after the determination of p24 load in the HIV-1 replication assay plates ([37]-[40]).
(§2) Fourteen 1,2-benzothiazine-3-carboxamide 1,1-dioxide derivatives containing different substituents at N-2 positions (12 and 13a-m) were synthesized and evaluated to inhibit the single-cycle HIV replication inhibition HeLa cell culture. Cytotoxicity of compounds was also tested in the same cell line to ensure the safety of compounds. Raltegravir was used as a positive control. Anti-HIV activity and cytotoxicity of compounds were expressed as EC50 and CC50, respectively. Selectivity Index (SI) was calculated using CC50/EC50 ratio.

[1] = test system: single-cycle replicable HIV NL4-3 virions in Hela cells; assay: single cycle HIV-1 replication assay (inhibition of p24 expression, capture ELISA); assay type: cell-based
Description: as §1, §2

[2] = XTT proliferation assay for cellular toxicity; assay type: cell-based; conditions: human; cytotoxicity in Hela cells, XTT
Description: as §1, §2

[3] = test system: single-cycle replicable HIV NL4-3 virions in Hela cells; parameters: method as in previously reported (b6); conditions: piroxicam value in Table 1, said in b54 to be previously reported; ref previously reported (b6); cited from earlier work
[4] = Human immunodeficiency virus 1, NL43, HeLa, 72 h

Row | Compound | CC50 (Hela cells) [µM] | EC50 ([1]; anti-HIV activity, single-cycle HIV NL4-3 in Hela cells, p24 at 72 hours, read-out: EC50) [µM] | melting point | CC50 at 72 h [2] [µM] | EC50 [1, 4] [µM] | EC50 [3] [µM]
1 | 2-(3,4-Dichlorobenzyl)-4-hydroxy-2H-benzo[e][1,2]thiazine-3-carboxamide 1,1-dioxide [Compound 13i] | 510 | 110 | – | – | – | –
2 | NC(=O)C1=C(O)c2ccccc2S(=O)(=O)N1 [Compound 12, 4-hydroxy-2H-benzo[e][1,2]thiazine-3-carboxamide 1,1-dioxide] | – | – | 244 °C (dec.) | 950 | 105 | –
3 | CCN1C(C(N)=O)=C(O)c2ccccc2S1(=O)=O [Compound 13a, 2-Ethyl-4-hydroxy-2H-benzo[e][1,2]thiazine-3-carboxamide 1,1-dioxide] | – | – | – | 550 | 80 | –
4 | NC(=O)C1=C(O)c2ccccc2S(=O)(=O)N1CC1CCCCC1 [Compound 13b, 2-(Cyclohexylmethyl)-4-hydroxy-2H-benzo[e][1,2]thiazine-3-carboxamide 1,1-dioxide] | – | – | 263 to 264 °C | 400 | 100 | –
5 | NC(=O)C1=C(O)c2ccccc2S(=O)(=O)N1Cc1ccccc1 [Compound 13c, 2-Benzyl-4-hydroxy-2H-benzo[e][1,2]thiazine-3-carboxamide 1,1-dioxide] | – | – | 270 to 275 °C | 600 | 45 | –
6 | Cc1ccc(CN2C(C(N)=O)=C(O)c3ccccc3S2(=O)=O)cc1 [Compound 13d, 4-Hydroxy-2-(4-methylbenzyl)-2H-benzo[e][1,2]thiazine-3-carboxamide 1,1-dioxide] | – | – | – | 680 | 25 | –
7 | Cc1ccccc1CN1C(C(N)=O)=C(O)c2ccccc2S1(=O)=O [Compound 13e, 4-Hydroxy-2-(2-methylbenzyl)-2H-benzo[e][1,2]thiazine-3-carboxamide 1,1-dioxide] | – | – | 268 to 271 °C | 650 | 55 | –
8 | COc1cccc(CN2C(C(N)=O)=C(O)c3ccccc3S2(=O)=O)c1 [Compound 13f, 4-Hydroxy-2-(3-methoxybenzyl)-2H-benzo[e][1,2]thiazine-3-carboxamide 1,1-dioxide] | – | – | 273 to 275 °C | 640 | 50 | –
9 | NC(=O)C1=C(O)c2ccccc2S(=O)(=O)N1Cc1ccccc1Cl [Compound 13g, 2-(2-Chlorobenzyl)-4-hydroxy-2H-benzo[e][1,2]thiazine-3-carboxamide 1,1-dioxide] | – | – | – | 650 | 40 | –
10 | NC(=O)C1=C(O)c2ccccc2S(=O)(=O)N1Cc1ccc(Cl)cc1 [Compound 13h, 2-(4-Chlorobenzyl)-4-hydroxy-2H-benzo[e][1,2]thiazine-3-carboxamide 1,1-dioxide] | – | – | – | 610 | 55 | –
11 | NC(=O)C1=C(O)c2ccccc2S(=O)(=O)N1Cc1ccccc1F [Compound 13j, 2-(2-Fluorobenzyl)-4-hydroxy-2H-benzo[e][1,2]thiazine-3-carboxamide 1,1-dioxide] | – | – | 268 to 273 °C | 680 | 35 | –
12 | NC(=O)C1=C(O)c2ccccc2S(=O)(=O)N1Cc1cccc(F)c1 [Compound 13k, 2-(3-Fluorobenzyl)-4-hydroxy-2H-benzo[e][1,2]thiazine-3-carboxamide 1,1-dioxide] | – | – | 271 to 275 °C | 550 | 60 | –
13 | NC(=O)C1=C(O)c2ccccc2S(=O)(=O)N1Cc1ccc(F)cc1 [Compound 13l, 2-(4-Fluorobenzyl)-4-hydroxy-2H-benzo[e][1,2]thiazine-3-carboxamide 1,1-dioxide] | – | – | – | 650 | 20 | –
14 | NC(=O)C1=C(O)c2ccccc2S(=O)(=O)N1Cc1ccc([N+](=O)[O-])cc1 [Compound 13m, 4-Hydroxy-2-(4-nitrobenzyl)-2H-benzo[e][1,2]thiazine-3-carboxamide 1,1-dioxide] | – | – | 288 °C (dec.) | 650 | 25 | –
15 | CN1C(C(=O)Nc2ccccn2)=C(O)c2ccccc2S1(=O)=O [Piroxicam, piroxicam, reference compound] | – | – | – | 900 | – | 120
16 | Cc1nnc(C(=O)NC(C)(C)c2nc(C(=O)NCc3ccc(F)cc3)c(O)c(=O)n2C)o1 [Raltegravir, raltegravir, reference compound] | – | – | – | > 500 | 0.9 | –
